Experimental data reported in patent publication US6887904B2, “Substituted arylcycloalkanes, compositions containing them and use thereof” (Aventis Pharma S. A., priority 2001, dated 2005).

Tests used:
Tubulin = Tubulin (Sus scrofa, UniProt P02550+P02554); experiment: Inhibition of tubulin polymerization (turbidimetry); type: biochemical, pig; settings: tubulin 10 μM, 37° C., turbidity at 350 nm
Experimental: Tubulin is purified from pig brains according to the published methods (Shelanski et al., 1973, Proc. Natl, Acad. Sci. USA, 70, 765-768. Weingarten et al., 1975, Proc. Natl, Acad. Sci. USA, 72, 1858-1862). Briefly, the brains are ground and centrifuged in an extraction buffer. The tubulin, contained in the extract supernatant, is subjected to two successive cycles of polymerization at 37° C. and depolymerization at 4° C., before being separated from the MAPs (Microtubule Associated Proteins) by chromatography on a phosphocellulose P11 column (Whatman). The tubulin thus isolated is more than 95% pure. It is stored in a buffer known as RB/2 30% glycerol, the composition of which is MES-NaOH [2-(N-morpholino)ethanesulfonic acid] 50 mM, pH 6.8; MgCl2 0.25 mM; EGTA 0.5 mM; 30% glycerol (v/v), GTP (guanosine 5′-triphosphate) 0.2 mM. The polymerization of the tubulin into microtubules is monitored by turbidimetry as follows; the tubulin is adjusted to a concentration of 10 μM (1 mg/ml) in the RB/2 30% glycerol buffer, to which is added 1 mM GTP and 6 mM MgCl2. The polymerization is initiated by increasing the temperature from 6° C. to 37° C. in a cuvette with a 1 cm optical pathlength, placed in a Uvikon 931 spectrophotometer (Kontron) equipped with a thermostatically-regulated cuvette holder. The increase in the turbidity of the solution is monitored at 350 nm. The products are dissolved at 10 mM in DMSO and added at variable concentrations (0.5 to 10 μM) to the tubulin solution before polymerization. The IC50 value is defined as the concentration of product which inhibits 50% of the rate of polymerization. A product whose IC50 value is less than or equal to 3 μM is considered as very active.

HeLa cells = experiment: Inhibition of proliferation of HeLa cells ([14C]-thymidine incorporation); type: cell-based, human
Experimental: The proliferation of HeLa cells is assessed by measuring the incorporation of [^14C]-thymidine in the following way. The HeLa cells (epithelial tumor cells of human origin) are cultured in a DMEM medium (Gibco) which contains 10% fetal calf serum and antibiotics (1% penicillin, 1% streptomycin). To carry out the proliferation test, the cells are inoculated into 96-well cytostar microplates (Amersham), at a rate of 5 000 cells per well. [^14C]-thymidine (0.1 μCi/well) and the products to be assessed are then added. Variable concentrations of product up to 10 μM are used; the DMSO (solvent used to dissolve the products) should not exceed 0.5% in the medium. After incubation for 48 hours at 37° C., the radioactivity incorporated into the cells is measured by counting the plate in a TRI-LUX counter (Wallac). The IC50 value is defined as the concentration of product which reduces the radioactivity by 50% relative to an untreated control. A product whose IC50 value is less than 1 μM is considered as cytotoxic.

HDMEC cells [1] = experiment: Inhibition of proliferation of HDMEC cells; type: cell-based; settings: Homo sapiens
HDMEC cells [2] = experiment: Detachment effect on HDMEC endothelial cells; type: cell-based, human; settings: treatment for two hours
Excerpt: A test to determine the detachment of endothelial cells was established in order to select the products on the basis of their “in vitro” activity. This test for determining the endothelial cell detachment is characterized in that the endothelial cells, inoculated in plates which are coated at the bottom with a binder, e.g., chosen from gelatin, fibronectin or vitronectin, after culturing, are supplemented with a medium containing the test compound, and the cells are then labeled with a fluorescent substance, the cells which become detached are removed by washing and the fluorescence of the remaining cells is counted in a fluorimeter.
This test consists in measuring the detachment of endothelial cells cultured on substrates based on a binder, e.g., chosen from fibronectin, vitronectin and gelatin. […] The fluorescence of the remaining cells is counted in a fluorimeter. […]
The assessment of the detachment of the endothelial cells in vitro is determined in the following way. […] The fluorescence of the cells which remain attached to the substratum of the well is counted using a fluorimeter, Spectrafluor Plus (Tecan, excitation at 485 nm, and emission at 535 nm). The data are the average of six different samples and are expressed as a percentage of the control (untreated cells). […]
The assessment of the detachment of the endothelial cells in vitro is determined in the following way. […]

Chain of Tubulin (P02554 whole entry): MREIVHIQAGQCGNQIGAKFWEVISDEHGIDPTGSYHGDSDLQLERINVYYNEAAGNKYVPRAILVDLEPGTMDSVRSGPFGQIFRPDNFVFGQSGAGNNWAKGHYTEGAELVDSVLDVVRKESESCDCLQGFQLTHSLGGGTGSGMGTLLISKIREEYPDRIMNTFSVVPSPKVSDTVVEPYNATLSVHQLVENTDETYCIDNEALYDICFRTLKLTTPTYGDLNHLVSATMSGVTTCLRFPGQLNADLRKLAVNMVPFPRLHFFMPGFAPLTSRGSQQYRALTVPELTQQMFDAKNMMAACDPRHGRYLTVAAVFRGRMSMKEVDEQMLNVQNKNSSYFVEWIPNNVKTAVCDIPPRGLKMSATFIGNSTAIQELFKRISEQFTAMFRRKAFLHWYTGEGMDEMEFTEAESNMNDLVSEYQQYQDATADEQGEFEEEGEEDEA
Chain of Tubulin (P02550 whole entry): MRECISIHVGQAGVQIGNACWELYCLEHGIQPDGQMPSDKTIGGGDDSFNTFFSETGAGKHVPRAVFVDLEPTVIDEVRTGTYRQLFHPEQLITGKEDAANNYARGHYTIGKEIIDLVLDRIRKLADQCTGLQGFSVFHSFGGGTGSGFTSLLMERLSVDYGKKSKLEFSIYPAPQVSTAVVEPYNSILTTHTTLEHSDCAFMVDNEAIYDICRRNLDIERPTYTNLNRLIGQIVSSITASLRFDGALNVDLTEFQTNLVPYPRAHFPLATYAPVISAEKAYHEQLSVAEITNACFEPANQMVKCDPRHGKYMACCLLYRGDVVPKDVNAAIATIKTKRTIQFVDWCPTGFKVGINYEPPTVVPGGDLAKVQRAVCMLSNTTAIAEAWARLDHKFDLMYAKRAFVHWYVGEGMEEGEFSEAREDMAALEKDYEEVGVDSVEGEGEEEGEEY

IC50 (HeLa cells; Homo sapiens, HeLa, 48 hours) [µM]	Compound	IC50 (Tubulin) [µM]	IC50 (HeLa cells; Homo sapiens, HeLa, 48 h) [µM]	IC50 (HDMEC cells [1]) [µM]	Percentage of detachment of HDMEC cells induced with the compound cited in the example at a concentration of 1 μM (HDMEC cells [2])	IC50 (HeLa cells; 48 hours) [µM]
	COc1ccc(C2CC2C(=O)c2cc(OC)c(OC)c(OC)c2)cc1O (racemic) [Example 1, [2-(3-Hydroxy-4-methoxyphenyl)cyclopropyl](3,4,5-trimethoxyphenyl)methanone, trans racemate]	1	< 0.0019	0.017 to 0.018	36-37%	
	COc1cc(C(=O)C2CC2c2ccc(N(C)C)cc2)cc(OC)c1OC (racemic) [Example 2, [2-(4-Dimethylaminophenyl)cyclopropyl](3,4,5-trimethoxyphenyl)methanone, trans racemate]	2.5	1.35	4		1.45
0.52 to 1.06	COc1ccc(C2C3C=CC(C3)C2C(=O)c2cc(OC)c(OC)c(OC)c2)cc1O (racemic) [Example 3, [2-(3-Hydroxy-4-methoxyphenyl)bicyclo[2.2.1]hept-4-enyl](3,4,5-trimethoxyphenyl)methanone, trans racemate]	4.5				
